# Measured values from ChEMBL document CHEMBL5053492, “Discovery of tert-amine-based RORγt agonists” (Eur J Med Chem, 2021).
# pEC50: −log10 of the molar value.
# Target: T1, Nuclear receptor ROR-gamma (Homo sapiens, UniProt P51449)
# T1 sequence (P51449 whole entry): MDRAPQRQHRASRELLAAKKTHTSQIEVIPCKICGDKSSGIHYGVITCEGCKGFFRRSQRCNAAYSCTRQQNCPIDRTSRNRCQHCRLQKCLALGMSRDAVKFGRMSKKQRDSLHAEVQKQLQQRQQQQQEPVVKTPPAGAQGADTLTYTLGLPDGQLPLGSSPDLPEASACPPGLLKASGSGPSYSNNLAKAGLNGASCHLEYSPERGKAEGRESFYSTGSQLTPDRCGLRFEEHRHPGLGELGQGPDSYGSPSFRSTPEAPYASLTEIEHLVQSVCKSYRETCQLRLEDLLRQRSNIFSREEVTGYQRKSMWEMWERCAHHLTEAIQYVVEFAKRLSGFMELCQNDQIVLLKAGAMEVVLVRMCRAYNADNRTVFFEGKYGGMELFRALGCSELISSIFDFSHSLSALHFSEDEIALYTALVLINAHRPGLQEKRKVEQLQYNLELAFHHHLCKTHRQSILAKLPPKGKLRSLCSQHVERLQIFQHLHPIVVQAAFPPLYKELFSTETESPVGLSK
# Assay: Agonist activity at APC-labeled RORgammat LBD (unknown origin) incubated for 1 hr in presence of europium labeled co-activator SRC1 by dual FRET assay
# Conditions: not given
row,pEC50,SMILES
1,8.04,CCCN(Cc1ccccc1)Cc1ccc(C(=O)NCc2ccc(S(=O)(=O)CC)cc2)cc1
2,6.96,CCCN(Cc1ccc(NC(=O)Cc2ccc(S(=O)(=O)CC)cc2)cc1)CC1CCCC1
3,5.19,CCCN(Cc1ccc(NC(=O)Cc2ccc(S(=O)(=O)CC)cc2)cc1)CC1CC1
4,7.85,CCS(=O)(=O)c1ccc(CC(=O)Nc2ccc(CN(Cc3ccccc3)CC3CC3)cc2)cc1
5,6.46,CCCN(Cc1ccccc1)Cc1ccc(NC(=O)Cc2ccc(C#N)cc2)cc1
6,5.66,CCCN(Cc1ccccc1)Cc1ccc(NC(=O)Cc2ccccc2)cc1
7,7.94,CCCN(CCc1ccccc1)c1ccc(NC(=O)Cc2ccc(S(=O)(=O)CC)cc2)cc1
8,7.54,CCCN(Cc1ccc(NC(=O)Cc2ccc(S(=O)(=O)CC)cc2)cc1)Cc1cccs1
9,7.10,CCCN(Cc1ccc(NC(=O)Cc2ccc(S(=O)(=O)CC)cc2)cc1)CC1CCC(F)(F)CC1
10,8.03,CCCN(Cc1ccc(NC(=O)Cc2ccc(S(=O)(=O)CC)cc2)cc1)Cc1ccccc1F
11,8.10,CCS(=O)(=O)c1ccc(CC(=O)Nc2ccc(CN(Cc3ccccc3)CC3CC3)c(Cl)c2)cc1
12,< 4.52,CCCN(Cc1ccc(NC(=O)Cc2ccc(S(=O)(=O)CC)cc2)cc1)Cc1nccs1
13,6.55,CCCN(Cc1ccc(NC(=O)Cc2ccc(S(=O)(=O)CC)cc2)cc1)CC1CCCO1 (stereo unspecified)
14,7.95,CCCCN(Cc1ccccc1)Cc1ccc(NC(=O)Cc2ccc(S(=O)(=O)CC)cc2)cc1
15,7.94,CCCN(Cc1ccc(NC(=O)Cc2ccc(S(=O)(=O)CC)cc2)cc1)Cc1ccccc1C
16,7.26,CCS(=O)(=O)c1ccc(CC(=O)Nc2ccc(NCCc3ccccc3)cc2)cc1

row,pEC50,SMILES
1,7.47,CCCN(Cc1ccccc1)Cc1ccc(NCCc2ccc(S(=O)(=O)CC)cc2)cc1
2,6.54,CCCN(Cc1ccc(NC(=O)Cc2ccc(S(=O)(=O)CC)cc2)cc1)CC1CCC1
3,< 4.52,CCS(=O)(=O)c1ccc(CC(=O)Nc2ccc(CNCc3ccccc3)cc2)cc1
4,5.15,CCCN(Cc1ccccc1)Cc1ccc(NC(=O)Cc2ccc(S(=O)(=O)CC)cn2)cc1
5,7.00,CCS(=O)(=O)c1ccc(CC(=O)Nc2ccc(CN(C)Cc3ccccc3)cc2)cc1
6,7.77,CCCN(Cc1ccc(NC(=O)Cc2ccc(S(=O)(=O)CC)cc2)cc1)Cc1ccccc1Cl
7,7.37,CCCN(Cc1ccccc1)Cc1ccc(NC(=O)Cc2ccc(S(C)(=O)=O)cc2)cc1
8,7.77,CCCN(Cc1ccc(Cl)cc1)Cc1ccc(NC(=O)Cc2ccc(S(=O)(=O)CC)cc2)cc1
9,7.06,CCCN(Cc1ccc(NC(=O)Cc2ccc(S(=O)(=O)CC)cc2)cc1)CC1CCOCC1
10,< 4.52,CCCN(Cc1ccccc1)Cc1ccc(NC(=O)Cc2ccc(C(=O)O)cc2)cc1
11,7.44,CCN(Cc1ccccc1)Cc1ccc(NC(=O)Cc2ccc(S(=O)(=O)CC)cc2)cc1
12,8.15,CCS(=O)(=O)c1ccc(CC(=O)Nc2ccc(CN(Cc3ccccc3)CC3CCC3)cc2)cc1
13,8.09,CCCN(Cc1ccccc1)Cc1c(Cl)cc(NC(=O)Cc2ccc(S(=O)(=O)CC)cc2)cc1Cl
14,7.40,CCCN(Cc1ccc(NC(=O)Cc2ccc(S(=O)(=O)CC)cc2)cc1)Cc1cccnc1
15,8.06,CCCN(Cc1ccccc1)Cc1ccc(NC(=O)Cc2ccc(S(=O)(=O)CC)cc2)cc1Cl
16,7.24,CCCN(Cc1ccccc1)Cc1ccc(NC(=O)NCc2ccc(S(=O)(=O)CC)cc2)cc1

# Target: T1, Nuclear receptor ROR-gamma
# Assay: Agonist activity at human RORgammat LBD expressed in HEK293T cells assessed as increase in Gal4 reporter gene transcription measured after 16 to 20 hrs by luciferase reporter gene assay
# Type: cell-based
# Conditions: not given
row,pEC50,SMILES
1,6.55,CCCN(Cc1ccc(NC(=O)Cc2ccc(S(C)(=O)=O)cc2)cc1Cl)CC1CCCCC1
2,6.42,CCCN(Cc1c(Cl)cc(NC(=O)Cc2ccc(S(C)(=O)=O)cc2)cc1Cl)CC1CCCCC1
3,6.56,CCCN(Cc1ccc(NC(=O)Cc2ccc(S(C)(=O)=O)cc2)cc1)CC1CCCCC1

# Target: T2, Nuclear receptor ROR-gamma (Mus musculus) (UniProt P51450)
# T2 sequence (whole entry): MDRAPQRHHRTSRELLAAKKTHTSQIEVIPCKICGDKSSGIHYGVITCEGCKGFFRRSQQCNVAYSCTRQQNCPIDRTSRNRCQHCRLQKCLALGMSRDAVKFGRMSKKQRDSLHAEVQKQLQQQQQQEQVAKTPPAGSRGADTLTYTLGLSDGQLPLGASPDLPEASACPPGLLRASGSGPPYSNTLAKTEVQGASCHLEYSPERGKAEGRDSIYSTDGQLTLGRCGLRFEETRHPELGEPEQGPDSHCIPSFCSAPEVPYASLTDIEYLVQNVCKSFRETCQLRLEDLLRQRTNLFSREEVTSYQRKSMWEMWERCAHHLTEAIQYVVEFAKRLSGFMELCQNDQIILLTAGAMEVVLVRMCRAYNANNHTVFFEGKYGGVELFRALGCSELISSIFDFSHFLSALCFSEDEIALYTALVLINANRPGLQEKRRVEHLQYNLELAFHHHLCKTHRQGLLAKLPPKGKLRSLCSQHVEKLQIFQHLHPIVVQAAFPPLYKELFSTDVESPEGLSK
# Assay: Agonist activity at RORgammat in mouse CD4+ T cells assessed as induction of Th17 cells differentiation by measuring increase in IL17 production at 250 nM measured after 4 days by intracellular staining based flow cytometry (reference value: 16.5 %)
# Type: cell-based
# Conditions: CD4+ve Th, time 4.0 day
row,Activity,SMILES
1,21.9%,CCCN(Cc1ccc(NC(=O)Cc2ccc(S(C)(=O)=O)cc2)cc1Cl)CC1CCCCC1
